In PMC10974995 (Pathogens, 2024):
≈ marks a conversion by molar mass, not a printed value. Like-named read-outs stand apart in the source and are kept apart here.

Assays:
[1] = system: PK-15 (porcine kidney epithelial cells) and/or FFL (feline fetus lung cells)
boar sperm [2] = test: cells
[3] = system: PK-15 (porcine kidney epithelial cells) and/or FFL (feline fetus lung cells); test: cells; conditions: Sus scrofa
boar sperm [4] = system: boar sperm
Rat = conditions: po; cited from earlier work
[5] = system: differentiated PK-15 cells; test: cells; conditions: Sus scrofa, PK-15, read-out: Mitochondrial Toxicity 1d (EC50, acceleration of glycolysis and depolarization of mitochondria)
[6] = system: differentiated PK-15 cells
Fish = conditions: cited from earlier work
[7] = 72 h, read-out: EC50 Ex Vivo BSMI 1–3d
[8] = PK-15, 48 h, read-out: EC50 In Vitro ICP 2d

Molecule	In Vitro ICP 2d, toxic (+) / nontoxic (−), microbial metabolites [1]	EC50 (boar sperm [2]; [7])	EC50 [3, 8]	Ex Vivo BSMI 1–3d, toxic (+) / nontoxic (−), microbial metabolites (boar sperm [4]; pig (boar))	In Vivo (toxicity to experimental animals), mycotoxins and fungal metabolites (Rat)	Toxicity In Vivo LD50 Rat p.o. (Rat)	EC50 In Vitro ICP 2d [1]	EC50 Ex Vivo BSMI 1–3d (boar sperm [4])	also measured
CC1(C)C=Cc2c(ccc3c2[N+]([O-])=C2C3=C[C@@]34NC(=O)[C@]5(CCCN5C3=O)C[C@H]4C2(C)C)O1 [Avrainvillamide]	(+) 0.2 (key: (+): For the microbial metabolites, EC50 < 5 µg mL^−1 and <10 µg mL^−1 were considered as toxic in the BSMI and ICP assays, respectively; nontoxic as (−))	0.2 µg/mL (≈ 0.449 µM)	0.2 µg/mL (≈ 0.449 µM)	(+) 0.2 (key: (+): For the microbial metabolites, EC50 < 5 µg mL^−1 and <10 µg mL^−1 were considered as toxic in the BSMI and ICP assays, respectively; nontoxic as (−))					
C/C1=C\[C@@H](C)C/C=C/[C@H]2[C@@H]3O[C@]3(C)[C@@H](C)[C@H]3[C@H](Cc4c[nH]c5ccccc45)NC(=O)[C@]32C(=O)/C=C/C(=O)[C@@H]1O [Chaetoglobosin A]	(+) 3 (key: (+): For the microbial metabolites, EC50 < 5 µg mL^−1 and <10 µg mL^−1 were considered as toxic in the BSMI and ICP assays, respectively; nontoxic as (−))	< 1 µg/mL	3 µg/mL (≈ 5.67 µM)	(+) <1 (key: (+): For the microbial metabolites, EC50 < 5 µg mL^−1 and <10 µg mL^−1 were considered as toxic in the BSMI and ICP assays, respectively; nontoxic as (−))	+ (key: LD50 rat p.o. <1000 mg kg ^–1 Classified as Toxic in vivo +.)	>400 mg/kg			
CC1=C2C(=CO[C@H](C)[C@H]2C)C(O)=C(C(=O)O)C1=O [Citrinin]	(+) 10 (key: (+): For the microbial metabolites, EC50 < 5 µg mL^−1 and <10 µg mL^−1 were considered as toxic in the BSMI and ICP assays, respectively; nontoxic as (−))	20 µg/mL (≈ 79.9 µM)	10 µg/mL (≈ 40 µM)	(−) 20	+ (key: LD50 rat p.o. <1000 mg kg ^–1 Classified as Toxic in vivo +.)	105 mg/kg			EC50 (boar sperm [2]; read-out: EC50 Ex Vivo BSMI, positive controls, mean of 10 or 11 measurements): ≥ 20 µg/mL; EC50 ([3]; PK-15, read-out: EC50 In Vitro ICP, positive controls, mean of 10 or 11 measurements): 13 µg/mL (≈ 51.9 µM)
Cc1cc(O)c2c(c1)C(=O)c1cc(O)cc(O)c1C2=O [Emodin]	(−) 45	4 µg/mL (≈ 14.8 µM)	45 µg/mL (≈ 167 µM)	(+) 4 (key: (+): For the microbial metabolites, EC50 < 5 µg mL^−1 and <10 µg mL^−1 were considered as toxic in the BSMI and ICP assays, respectively; nontoxic as (−))		1000 mg/kg			EC50 [5]: 3 µg/mL (≈ 11.1 µM)
O=c1cc(O)c1=O [Moniliformin]	(−) >20				+ (key: LD50 rat p.o. <1000 mg kg ^–1 Classified as Toxic in vivo +.)	50 mg/kg	(−) >20 μg mL^–1	(+) 2 μg mL^–1	Mitochondrial Toxicity 1d (EC50, acceleration of glycolysis and depolarization of mitochondria) [6]: (+) 2 μg mL^–1; Ex Vivo BSMI 1–3d, toxic (+) / nontoxic (−), microbial metabolites (boar sperm [4]): (+) 2 (key: (+): For the microbial metabolites, EC50 < 5 µg mL^−1 and <10 µg mL^−1 were considered as toxic in the BSMI and ICP assays, respectively; nontoxic as (−))
CC(C)=C[C@H]1C[C@H](C)[C@]2(CC[C@]3(C)C[C@H]4[C@H](C(=O)C[C@@]4(C)O)/C(C=O)=C\C[C@H]32)O1 [Ophiobolin, Ophiobolin A]	(+) 0.1 (key: (+): For the microbial metabolites, EC50 < 5 µg mL^−1 and <10 µg mL^−1 were considered as toxic in the BSMI and ICP assays, respectively; nontoxic as (−))	0.3 µg/mL (≈ 0.749 µM)	0.1 µg/mL (≈ 0.25 µM)	(+) 0.3 (key: (+): For the microbial metabolites, EC50 < 5 µg mL^−1 and <10 µg mL^−1 were considered as toxic in the BSMI and ICP assays, respectively; nontoxic as (−))	+ (key: LD50 rat p.o. <1000 mg kg ^–1 Classified as Toxic in vivo +.)	238 mg/kg			
CCCCCCCCCCCCOS(=O)(=O)[O-].[Na+] [SDS, Sodium dodecyl sulfate]						1288 mg/kg	(−) 120 μg mL^–1	(+) 10 μg mL^–1	In Vivo (toxicity to experimental animals), xenobiotic chemicals (Fish): + (key: LD50 Fish Inhaled <10 μg mL ^–1 = Toxic in vivo Marked as +.); Toxicity In Vivo LD50 Fish (Fish): 30 mg/L; In Vitro ICP 2d, toxic (+) / nontoxic (−), xenobiotic chemicals [1]: (−) 120; Ex Vivo BSMI 1–3d, toxic (+) / nontoxic (−), xenobiotic chemicals (boar sperm [4]): (+) 10 (key: (+): For the xenobiotic chemicals, EC50 values < 10 µg mL^−1 and <20 µg mL^−1 were considered as toxic in the BSMI assay and in the ICP assay, respectively; nontoxic as (−))
CC1(C)C=Cc2c(ccc3c2[N+]([O-])=C2C(C)(C)[C@@H]4CC56CCCN5C(=O)[C@]4(NC6=O)[C@H]4N5C(=O)[C@@]67CCCN6C(=O)[C@@]56[C@H](c5c(n(O)c8c9c(ccc58)OC(C)(C)C=C9)C(C)(C)[C@@H]6C7)[C@]234)O1 [Stephacidin B]							(++) 0.3 μg mL^–1	(+) 0.3 μg mL^–1	Ex Vivo BSMI 1–3d, toxic (+) / nontoxic (−), microbial metabolites (boar sperm [4]): (+) 0.3 (key: (+): For the microbial metabolites, EC50 < 5 µg mL^−1 and <10 µg mL^−1 were considered as toxic in the BSMI and ICP assays, respectively; nontoxic as (−))
COc1cc2c(c3oc4cccc(O)c4c(=O)c13)[C@@H]1C=CO[C@@H]1O2 [Sterigmatocystin]	(+) 0.1 (key: (+): For the microbial metabolites, EC50 < 5 µg mL^−1 and <10 µg mL^−1 were considered as toxic in the BSMI and ICP assays, respectively; nontoxic as (−))			(−)>20	+ (key: LD50 rat p.o. <1000 mg kg ^–1 Classified as Toxic in vivo +.)		(+) 0.1 μg mL^–1	(−)>20 μg mL^–1	
CC(C)[C@@H]1NC(=O)[C@H](C)OC(=O)[C@@H](C(C)C)NC(=O)[C@@H](C(C)C)OC(=O)[C@H](C(C)C)NC(=O)[C@H](C)OC(=O)[C@@H](C(C)C)NC(=O)[C@@H](C(C)C)OC(=O)[C@H](C(C)C)NC(=O)[C@H](C)OC(=O)[C@@H](C(C)C)NC(=O)[C@@H](C(C)C)OC1=O [Valinomycin]						4 mg/kg			
Acrebol	(−) >10						(−) >10 μg mL^–1	(+) 0.1 μg mL^–1	Mitochondrial Toxicity 1d (EC50, acceleration of glycolysis and depolarization of mitochondria) [6]: (+) 0.1 μg mL^–1; Ex Vivo BSMI 1–3d, toxic (+) / nontoxic (−), microbial metabolites (boar sperm [4]): (+) 0.1 (key: (+): For the microbial metabolites, EC50 < 5 µg mL^−1 and <10 µg mL^−1 were considered as toxic in the BSMI and ICP assays, respectively; nontoxic as (−))
Polyethylene glycol sorbitan mono oleate [Tween 80]						>25,000 mg kg^−1		(+) 10 μg mL^–1	In Vivo (toxicity to experimental animals), xenobiotic chemicals (Fish): −; In Vitro ICP 2d, toxic (+) / nontoxic (−), xenobiotic chemicals [1]: (−) 500; Ex Vivo BSMI 1–3d, toxic (+) / nontoxic (−), xenobiotic chemicals (boar sperm [4]): (+) 10 (key: (+): For the xenobiotic chemicals, EC50 values < 10 µg mL^−1 and <20 µg mL^−1 were considered as toxic in the BSMI assay and in the ICP assay, respectively; nontoxic as (−)); Response in the BSMI assay (boar sperm [4]): weak positive response
Polyethyleneglycol monalkyl ether [Genapol X 080]						>2000 mg/kg	(−) 30 μg mL^–1	(+) 3 μg mL^–1	In Vivo (toxicity to experimental animals), xenobiotic chemicals (Fish): + (key: LD50 Fish Inhaled <10 μg mL ^–1 = Toxic in vivo Marked as +.); Toxicity In Vivo LD50 Fish (Fish): 5 mg/L; In Vitro ICP 2d, toxic (+) / nontoxic (−), xenobiotic chemicals [1]: (−) 30; Mitochondrial Toxicity 1d (EC50, acceleration of glycolysis and depolarization of mitochondria) [6]: (+) 5 μg mL^–1; Mitochondrial toxicity after testing with somatic cells [6]: Mitochondrial toxicity was recorded; Ex Vivo BSMI 1–3d, toxic (+) / nontoxic (−), xenobiotic chemicals (boar sperm [4]): (+) 3 (key: (+): For the xenobiotic chemicals, EC50 values < 10 µg mL^−1 and <20 µg mL^−1 were considered as toxic in the BSMI assay and in the ICP assay, respectively; nontoxic as (−))
Polyethyleneglycol-p-is-octylphenyl ether [Triton X –100]						500 mg/kg	(−) 30 μg mL^–1	(+) 1 μg mL^–1	In Vivo (toxicity to experimental animals), xenobiotic chemicals (Fish): + (key: LD50 Fish Inhaled <10 μg mL ^–1 = Toxic in vivo Marked as +.); Toxicity In Vivo LD50 Fish (Fish): 5 mg/L; In Vitro ICP 2d, toxic (+) / nontoxic (−), xenobiotic chemicals [1]: (−) 30; Ex Vivo BSMI 1–3d, toxic (+) / nontoxic (−), xenobiotic chemicals (boar sperm [4]): (+) 1 (key: (+): For the xenobiotic chemicals, EC50 values < 10 µg mL^−1 and <20 µg mL^−1 were considered as toxic in the BSMI assay and in the ICP assay, respectively; nontoxic as (−))
